According to patent US4599352A, “Antineoplastic platinum (IV) complexes and compositions” (priority 1984, dated 1986):

What was measured:
IP L1210 leukemia = test: Mouse optimal (highest tolerated) dose, IP L1210 leukemia, Days 1, 5 and 9 schedule (Table 7); format: in vivo
From the text: *IP L1210 leukemia, Days 1, 5 and 9 schedule. Highest tolerated dose in a
least 2 of 3 experiments (i.e,. animal weight difference (testcontrol)

IP L1210/Cisplatin [1] = test: Activity against IP-implanted L1210/Cisplatin leukemia resistant to cisplatin, 60 day test (Table 4); format: in vivo, Female CD2Fl mice
Protocol: (§1) Biological properties of the compounds of the present invention were determined following the protocol described in Cancer Chemotherapy Reports, Vol. 3, No. 3, 1972 which report is incorporated herein by reference.
Other known mechanisms of resistance for other classes of agents, such as gene amplification or target enzyme change or amplication, also need to be explored. The experiments summarized in Table 3 were conducted at the same time against both sublines using the same drug preparations. […] These experiments were repeated in a second laboratory as documented in Table 4. However, in these experiments the animals were held for 60 rather than 30 days to evaluate whether or not long-term survivors are produced after drug treatment in a more challenging setting. […]
(§2) These experiments (23-00081 3LE31 and 23-00003 3DP3l) were conducted concurrently at the Mason Research Institute, Worcester, MA under the supervision of Dr. William Cobb. See Table 4 for experimental details. The diluent control animals bearing L1210 leukemia lived a median of 8.3 days and gained 1.6 grams by Day 5. […] Female CD2Fl mice were used for these experiments.

IP L1210 = test: Activity against IP-implanted L1210 leukemia sensitive to cisplatin, 60 day test (Table 4); format: in vivo, Female CD2Fl mice
Protocol: as §1
(§3) Other known mechanisms of resistance for other classes of agents, such as gene amplification or target enzyme change or amplication, also need to be explored. The experiments summarized in Table 3 were conducted at the same time against both sublines using the same drug preparations. […] These experiments were repeated in a second laboratory as documented in Table 4. However, in these experiments the animals were held for 60 rather than 30 days to evaluate whether or not long-term survivors are produced after drug treatment in a more challenging setting.
This experiment (A8-00005 3LE31) was conducted at the Southern Research Institute, Birmingham, Ala. under the supervision of Dr. Daniel Griswold. The protocols were the same as those published previously (Geran et al., Cancer Chemotherapy Reports 3: No. 2, 1972 [Attachment 11]). 10^5 cells were implanted intraperitoneally in CD2Fl male mice on Day 0. Drug treatments were given intraperitoneally as single injections at the doses indicated on Days 1, 5 and 9 after tumor implantation. The diluent was saline except for NSC-271674 where 5% sodium bicarbonate was used. All drugs were prepared fresh on the day of injection, and all were administered in solution. Median survival times for both control and drug-treated mice were determined and expressed as a percentage (% T/C). Body weights were determined on Day 5 and expressed as a weight difference (body weight of the drug-treated animals minus that of the control animals in grams) (T-C). The diluent control animals lived a median of 8.4 days and gained 1.9 grams by Day 5 in this experiment. All animals, including Day 30 survivors, were used in the calculation of median survival times. The log10 change in tumor burden refers to the net log change in viable tumor cell population at the end of therapy (Rx) as compared to the start of therapy; e.g., a […] means that there was a […] and a 3 log change means there was a 1000-fold increase in tumor burden at the end of therapy. The tumor burden at the start of therapy was about 6.1×10^5 cells in this experiment.
as §2

IP L1210/Cisplatin [2] = test: Activity against IP-implanted L1210/Cisplatin leukemia resistant to cisplatin, 30 day test (Table 3); format: in vivo, Female CD2Fl mice
Protocol: as §1, §3
This experiment (A8-00005 3LE31) was conducted at the Southern Research Institute, Birmingham, Ala. under the supervision of Dr. Daniel Griswold. The protocols were the same as those published previously (Geran et al., Cancer Chemotherapy Reports 3: No. 2, 1972 [Attachment 11]). 10^5 cells were implanted intraperitoneally in CD2Fl male mice on Day 0. Drug treatments were given intraperitoneally as single injections at the doses indicated on Days 1, 5 and 9 after tumor implantation. The diluent was saline except for NSC-271674 where 5% sodium bicarbonate was used. All drugs were prepared fresh on the day of injection, and all were administered in solution. Median survival times for both control and drug-treated mice were determined and expressed as a percentage (% T/C). Body weights were determined on Day 5 and expressed as a weight difference (body weight of the drug-treated animals minus that of the control animals in grams) (T-C). The diluent control animals lived a median of 8.4 days and gained 1.9 grams by Day 5 in this experiment. All animals, including Day 30 survivors, were used in the calculation of median survival times. The log10 change in tumor burden refers to the net log change in viable tumor cell population at the end of therapy (Rx) as compared to the start of therapy; e.g., a […] means that there was a […] and a 3 log change means there was a 1000-fold increase in tumor burden at the end of therapy. The tumor burden at the start of therapy was about 6.1×10^5 cells in this experiment. […]

[Cl][Pt-2]1([Cl])([Cl])([Cl])[NH2+][C@@H]2CCCC[C@H]2[NH2+]1 [trans (l), (1R,2R)-Tetrachloro-trans-1,2-cyclohexanediammine platinum (IV)]
Mouse Optimal Dose (highest tolerated dose in at least 2 of 3 experiments) (IP L1210 leukemia): 8 mg/kg | 60 Day Survivors/Total (IP L1210/Cisplatin [1]; 1 mg/kg/dose): 0/10 | Body Weight Difference (IP L1210/Cisplatin [1]; 1 mg/kg/dose): -1.1 Grams | Median % T/C (IP L1210/Cisplatin [1]; 1 mg/kg/dose): 132% | 60 Day Survivors/Total (IP L1210/Cisplatin [1]; 2 mg/kg/dose): 4/10 | Body Weight Difference (IP L1210/Cisplatin [1]; 2 mg/kg/dose): -0.8 Grams | Median % T/C (IP L1210/Cisplatin [1]; 2 mg/kg/dose): 239% | 60 Day Survivors/Total (IP L1210/Cisplatin [1]; 4 mg/kg/dose): 3/8 | Body Weight Difference (IP L1210/Cisplatin [1]; 4 mg/kg/dose): -1.7 Grams | Median % T/C (IP L1210/Cisplatin [1]; 4 mg/kg/dose): 376% | 60 Day Survivors/Total (IP L1210/Cisplatin [1]; 8 mg/kg/dose): 0/10 | Body Weight Difference (IP L1210/Cisplatin [1]; 8 mg/kg/dose): -3.5 Grams | Median % T/C (IP L1210/Cisplatin [1]; 8 mg/kg/dose): 133% | 60 Day Survivors/Total (IP L1210/Cisplatin [1]; 16 mg/kg/dose): 0/10 | Body Weight Difference (IP L1210/Cisplatin [1]; 16 mg/kg/dose): -7.3 Grams | Median % T/C (IP L1210/Cisplatin [1]; 16 mg/kg/dose): Toxic | 60 Day Survivors/Total (IP L1210; 1 mg/kg/dose): 0/10 | Body Weight Difference (IP L1210; 1 mg/kg/dose): -0.4 Grams | Median % T/C (IP L1210; 1 mg/kg/dose): 146% | 60 Day Survivors/Total (IP L1210; 2 mg/kg/dose): 2/10 | Body Weight Difference (IP L1210; 2 mg/kg/dose): -0.8 Grams | Median % T/C (IP L1210; 2 mg/kg/dose): 216% | 60 Day Survivors/Total (IP L1210; 4 mg/kg/dose): 0/10 | Body Weight Difference (IP L1210; 4 mg/kg/dose): -2.2 Grams | Median % T/C (IP L1210; 4 mg/kg/dose): 208% | 60 Day Survivors/Total (IP L1210; 8 mg/kg/dose): 1/10 | Body Weight Difference (IP L1210; 8 mg/kg/dose): -3.7 Grams | Median % T/C (IP L1210; 8 mg/kg/dose): 228% | 60 Day Survivors/Total (IP L1210; 16 mg/kg/dose): 0/10 | Body Weight Difference (IP L1210; 16 mg/kg/dose): -5.9 Grams | Median % T/C (IP L1210; 16 mg/kg/dose): Toxic | 30 Day Survivors/Total (IP L1210/Cisplatin [2]; 1 mg/kg/dose): 0/6 | Approx. Log10 Change in Tumor Burden at End of RX (IP L1210/Cisplatin [2]; 1 mg/kg/dose): ~2.8 log10 | Median % T/C (IP L1210/Cisplatin [2]; 1 mg/kg/dose): 118% | 30 Day Survivors/Total (IP L1210/Cisplatin [2]; 2 mg/kg/dose): 0/6 | Approx. Log10 Change in Tumor Burden at End of RX (IP L1210/Cisplatin [2]; 2 mg/kg/dose): ~2.5 log10 | Median % T/C (IP L1210/Cisplatin [2]; 2 mg/kg/dose): 137% | 30 Day Survivors/Total (IP L1210/Cisplatin [2]; 4 mg/kg/dose): 5/6 | Approx. Log10 Change in Tumor Burden at End of RX (IP L1210/Cisplatin [2]; 4 mg/kg/dose): ~-5.9 log10 | Median % T/C (IP L1210/Cisplatin [2]; 4 mg/kg/dose): 322% | 30 Day Survivors/Total (IP L1210/Cisplatin [2]; 8 mg/kg/dose): 5/6 | Approx. Log10 Change in Tumor Burden at End of RX (IP L1210/Cisplatin [2]; 8 mg/kg/dose): ~-5.9 log10 | Median % T/C (IP L1210/Cisplatin [2]; 8 mg/kg/dose): 322% | 30 Day Survivors/Total (IP L1210/Cisplatin [2]; 16 mg/kg/dose): 0/6 | Approx. Log10 Change in Tumor Burden at End of RX (IP L1210/Cisplatin [2]; 16 mg/kg/dose): ~3.1 log10 | Median % T/C (IP L1210/Cisplatin [2]; 16 mg/kg/dose): 89%

Tetrachloro-cis-1,2-cyclohexanediamine platinum (IV)
Mouse Optimal Dose (highest tolerated dose in at least 2 of 3 experiments) (IP L1210 leukemia): 8 mg/kg | 60 Day Survivors/Total (IP L1210/Cisplatin [1]; 2 mg/kg/dose): 0/10 | Body Weight Difference (IP L1210/Cisplatin [1]; 2 mg/kg/dose): -0.3 Grams | Median % T/C (IP L1210/Cisplatin [1]; 2 mg/kg/dose): 121% | 60 Day Survivors/Total (IP L1210/Cisplatin [1]; 4 mg/kg/dose): 0/10 | Body Weight Difference (IP L1210/Cisplatin [1]; 4 mg/kg/dose): 0.0 Grams | Median % T/C (IP L1210/Cisplatin [1]; 4 mg/kg/dose): 130% | 60 Day Survivors/Total (IP L1210/Cisplatin [1]; 8 mg/kg/dose): 1/10 | Body Weight Difference (IP L1210/Cisplatin [1]; 8 mg/kg/dose): -2.7 Grams | Median % T/C (IP L1210/Cisplatin [1]; 8 mg/kg/dose): 191% | 60 Day Survivors/Total (IP L1210/Cisplatin [1]; 16 mg/kg/dose): 0/10 | Body Weight Difference (IP L1210/Cisplatin [1]; 16 mg/kg/dose): -5.4 Grams | Median % T/C (IP L1210/Cisplatin [1]; 16 mg/kg/dose): Toxic | 60 Day Survivors/Total (IP L1210/Cisplatin [1]; 32 mg/kg/dose): 0/10 | Body Weight Difference (IP L1210/Cisplatin [1]; 32 mg/kg/dose): -5.1 Grams | Median % T/C (IP L1210/Cisplatin [1]; 32 mg/kg/dose): Toxic | 60-day (long term) survivors (IP L1210/Cisplatin [1]; L1210/cisplatin, tolerated doses): only one long term survivor | 60 Day Survivors/Total (IP L1210; 2 mg/kg/dose): 0/10 | Body Weight Difference (IP L1210; 2 mg/kg/dose): -0.9 Grams | Median % T/C (IP L1210; 2 mg/kg/dose): 143% | 60 Day Survivors/Total (IP L1210; 4 mg/kg/dose): 2/10 | Body Weight Difference (IP L1210; 4 mg/kg/dose): -0.9 Grams | Median % T/C (IP L1210; 4 mg/kg/dose): 250% | 60 Day Survivors/Total (IP L1210; 8 mg/kg/dose): 2/10 | Median % T/C (IP L1210; 8 mg/kg/dose): 313% | 60 Day Survivors/Total (IP L1210; 16 mg/kg/dose): 0/10 | Body Weight Difference (IP L1210; 16 mg/kg/dose): -5.6 Grams | Median % T/C (IP L1210; 16 mg/kg/dose): 98% | 60 Day Survivors/Total (IP L1210; 32 mg/kg/dose): 0/10 | Body Weight Difference (IP L1210; 32 mg/kg/dose): -5.6 Grams | Median % T/C (IP L1210; 32 mg/kg/dose): Toxic | 30 Day Survivors/Total (IP L1210/Cisplatin [2]; 1 mg/kg/dose): 0/6 | Approx. Log10 Change in Tumor Burden at End of RX (IP L1210/Cisplatin [2]; 1 mg/kg/dose): ~3.0 log10 | Median % T/C (IP L1210/Cisplatin [2]; 1 mg/kg/dose): 105% | 30 Day Survivors/Total (IP L1210/Cisplatin [2]; 2 mg/kg/dose): 0/6 | Approx. Log10 Change in Tumor Burden at End of RX (IP L1210/Cisplatin [2]; 2 mg/kg/dose): ~2.9 log10 | Median % T/C (IP L1210/Cisplatin [2]; 2 mg/kg/dose): 110% | 30 Day Survivors/Total (IP L1210/Cisplatin [2]; 4 mg/kg/dose): 0/6 | Approx. Log10 Change in Tumor Burden at End of RX (IP L1210/Cisplatin [2]; 4 mg/kg/dose): ~2.9 log10 | Median % T/C (IP L1210/Cisplatin [2]; 4 mg/kg/dose): 111% | 30 Day Survivors/Total (IP L1210/Cisplatin [2]; 8 mg/kg/dose): 0/6 | Approx. Log10 Change in Tumor Burden at End of RX (IP L1210/Cisplatin [2]; 8 mg/kg/dose): ~2.4 log10 | Median % T/C (IP L1210/Cisplatin [2]; 8 mg/kg/dose): 138% | 30 Day Survivors/Total (IP L1210/Cisplatin [2]; 16 mg/kg/dose): 3/6 | Approx. Log10 Change in Tumor Burden at End of RX (IP L1210/Cisplatin [2]; 16 mg/kg/dose): ~-5.9 log10 | Median % T/C (IP L1210/Cisplatin [2]; 16 mg/kg/dose): 322%
